Laboratory results: ChEMBL document CHEMBL4673302, “Efficient synthesis and antitumor evaluation of 4-aminomethyl-N-arylpyrazoles: Discovery of potent and selective agents for ovarian cancer” (Bioorg Med Chem, 2021)

How the values were obtained:
HT-29 = assay: Anticancer activity against human HT-29 cells assessed as cell growth inhibition measured after 48 hrs by sulforhodamine B assay; type: functional
K562 = assay: Anticancer activity against human K562 cells assessed as cell growth inhibition measured after 48 hrs by sulforhodamine B assay; type: functional
786-0 = assay: Anticancer activity against human 786-0 cells assessed as cell growth inhibition measured after 48 hrs by sulforhodamine B assay; type: functional
MCF7 = assay: Anticancer activity against human MCF7 cells assessed as cell growth inhibition measured after 48 hrs by sulforhodamine B assay; type: functional
U-251 = assay: Anticancer activity against human U-251 cells assessed as cell growth inhibition measured after 48 hrs by sulforhodamine B assay; type: functional
NCI-H460 = assay: Anticancer activity against human NCI-H460 cells assessed as cell growth inhibition measured after 48 hrs by sulforhodamine B assay; type: functional
PC-3 = assay: Anticancer activity against human PC-3 cells assessed as cell growth inhibition measured after 48 hrs by sulforhodamine B assay; type: functional
[1] = (§1) Cytotoxicity against human HaCaT cells assessed as cell growth inhibition measured after 48 hrs by sulforhodamine B assay; type: cell-based; conditions: HaCaT cells
OVCAR-3 = assay: Anticancer activity against human OVCAR-3 cells assessed as cell growth inhibition measured after 48 hrs by sulforhodamine B assay; type: functional
HaCaT = assay: as §1; type: cell-based; conditions: hacat, 48 h

Row | SMILES | GI50 (HT-29; Homo sapiens, HT-29, 48 h) | GI50 (K562; Homo sapiens, K562, 48 h) | GI50 (786-0; Homo sapiens, 786-0, 48 h) | GI50 (MCF7; Homo sapiens, MCF7, 48 h) | GI50 (U-251; Homo sapiens, U-251, 48 h) | GI50 (NCI-H460; Homo sapiens, NCI-H460, 48 h) | GI50 (PC-3; Homo sapiens, PC-3, 48 h) | GI50 (OVCAR-3; Homo sapiens, OVCAR-3, 48 h) | GI50 (HT-29; 48 h) | GI50 (K562; 48 h) | GI50 (786-0; 48 h) | GI50 (U-251; 48 h) | GI50 (PC-3; 48 h) | GI50 (OVCAR-3; 48 h) | GI50 (MCF7; 48 h) | GI50 (NCI-H460; 48 h) | GI50 at 48 h [1] | GI50 (HaCaT)
1 | CC(C)(C)NCc1c(C(=O)O)nn(-c2ccc(Cl)cc2)c1-c1ccccc1 | > 652 µM | > 652 µM | > 652 µM | 496 µM | > 652 µM | > 652 µM | > 652 µM | 652 µM | – | – | – | – | – | – | – | – | 175 µM | –
2 | COc1ccc(-c2c(CNC(C)(C)C)c(C(=O)O)nn2-c2ccc(Cl)cc2)cc1 | > 605 µM | > 605 µM | > 605 µM | 220 µM | 498 µM | > 605 µM | > 605 µM | 121 µM | – | – | – | – | – | – | – | – | 121 µM | –
3 | CC(C)(C)NCc1c(C(=O)O)nn(-c2ccc(Cl)cc2)c1-c1ccc([N+](=O)[O-])cc1 | > 584 µM | 158 µM | 104 µM | 550 µM | > 584 µM | 141 µM | > 584 µM | 162 µM | – | – | – | – | – | – | – | – | > 584 µM | –
4 | CC(C)(C)NCc1c(C(=O)O)nn(-c2ccccc2)c1-c1ccc([N+](=O)[O-])cc1 | > 634 µM | > 634 µM | > 634 µM | > 634 µM | > 634 µM | > 634 µM | > 634 µM | > 634 µM | – | – | – | – | – | – | – | – | > 634 µM | –
5 | Cc1ccc(-c2c(CNC(C)(C)C)c(C(=O)O)nn2-c2ccc(Cl)cc2)cc1 | > 630 µM | > 630 µM | > 630 µM | > 630 µM | > 630 µM | > 630 µM | > 630 µM | > 630 µM | – | – | – | – | – | – | – | – | > 630 µM | –
6 | Cc1ccc(-c2c(CNC(C)(C)C)c(C(=O)O)nn2-c2ccccc2)cc1 | > 688 µM | > 688 µM | > 688 µM | > 688 µM | > 688 µM | > 688 µM | > 688 µM | 283 µM | – | – | – | – | – | – | – | – | > 688 µM | –
7 | CC(C)(C)NCc1c(C(=O)O)nn(-c2ccccc2)c1-c1ccc(Br)cc1 | > 585 µM | > 585 µM | > 585 µM | 293 µM | 126 µM | > 585 µM | > 585 µM | > 585 µM | – | – | – | – | – | – | – | – | 366 µM | –
8 | CCOC(=O)c1nn(-c2ccc(Cl)cc2)c(-c2ccccc2)c1CNC(C)(C)C | 336 µM | – | > 608 µM | > 608 µM | > 608 µM | > 608 µM | > 608 µM | > 608 µM | – | 64.5 µM | – | – | – | – | – | – | > 608 µM | –
9 | CC(C)(C)NCc1c(C(=O)O)nn(-c2ccccc2)c1-c1ccccc1 | > 716 µM | > 716 µM | > 716 µM | > 716 µM | > 716 µM | > 716 µM | > 716 µM | > 716 µM | – | – | – | – | – | – | – | – | > 716 µM | –
10 | CCOC(=O)c1nn(-c2ccc(Cl)cc2)c(-c2ccc(Cl)cc2)c1CNC(C)(C)C | – | – | – | – | – | – | – | – | > 520 µM | > 520 µM | > 520 µM | > 520 µM | > 520 µM | > 520 µM | > 520 µM | > 520 µM | – | > 520 µM

The next lines start with results.

Row | GI50 (HT-29; Homo sapiens, HT-29, 48 h) | GI50 (K562; Homo sapiens, K562, 48 h) | GI50 (786-0; Homo sapiens, 786-0, 48 h) | GI50 (MCF7; Homo sapiens, MCF7, 48 h) | GI50 (U-251; Homo sapiens, U-251, 48 h) | GI50 (NCI-H460; Homo sapiens, NCI-H460, 48 h) | GI50 (PC-3; Homo sapiens, PC-3, 48 h) | GI50 (OVCAR-3; Homo sapiens, OVCAR-3, 48 h) | GI50 (HT-29; 48 h) | GI50 (K562; 48 h) | GI50 (786-0; 48 h) | GI50 (U-251; 48 h) | GI50 (PC-3; 48 h) | GI50 (OVCAR-3; 48 h) | GI50 (MCF7; 48 h) | GI50 (NCI-H460; 48 h) | SMILES | GI50 at 48 h [1] | GI50 (HaCaT)
11 | 353 µM | 364 µM | > 652 µM | > 652 µM | > 652 µM | 70.5 µM | 145 µM | > 652 µM | – | – | – | – | – | – | – | – | CC(C)(C)NCc1c(C(=O)O)nn(-c2ccccc2)c1-c1ccc(Cl)cc1 | > 652 µM | –
12 | 0.26 µM | 0.06 µM | – | < 0.046 µM | < 0.046 µM | < 0.046 µM | 0.42 µM | 0.09 µM | – | – | – | – | – | – | – | – | COc1cccc2c1C(=O)c1c(O)c3c(c(O)c1C2=O)C[C@@](O)(C(=O)CO)C[C@@H]3O[C@H]1C[C@H](N)[C@H](O)[C@H](C)O1 [DOXORUBICIN] | < 0.046 µM | –
13 | > 542 µM | 297 µM | 542 µM | 221 µM | > 542 µM | > 542 µM | > 542 µM | 513 µM | – | – | – | – | – | – | – | – | CC(C)(C)NCc1c(C(=O)O)nn(-c2ccc(Cl)cc2)c1-c1ccc(Br)cc1 | > 542 µM | –
14 | > 659 µM | > 659 µM | > 659 µM | > 659 µM | > 659 µM | > 659 µM | > 659 µM | > 659 µM | – | – | – | – | – | – | – | – | COc1ccc(-c2c(CNC(C)(C)C)c(C(=O)O)nn2-c2ccccc2)cc1 | > 659 µM | –
15 | > 511 µM | > 511 µM | > 511 µM | > 511 µM | > 511 µM | > 511 µM | > 511 µM | > 511 µM | – | – | – | – | – | – | – | – | CCOC(=O)c1nn(-c2ccc(Cl)cc2)c(-c2ccc(Br)cc2)c1CNC(C)(C)C | > 511 µM | –
16 | > 623 µM | > 623 µM | 204 µM | 270 µM | > 623 µM | > 623 µM | > 623 µM | 116 µM | – | – | – | – | – | – | – | – | CC(C)(C)NCc1c(C(=O)O)nn(-c2ccc(Cl)cc2)c1-c1ccc(F)cc1 | 28.7 µM | –
17 | – | – | – | 206 µM | – | 429 µM | – | – | 71.3 µM | 12 µM | 200 µM | 220 µM | > 592 µM | 8.78 µM | – | – | CCOC(=O)c1nn(-c2ccccc2)c(-c2ccc([N+](=O)[O-])cc2)c1CNC(C)(C)C | 103 µM | –
18 | > 599 µM | 290 µM | > 599 µM | 246 µM | 518 µM | > 599 µM | > 599 µM | 84.9 µM | – | – | – | – | – | – | – | – | CC(C)(C)NCc1c(C(=O)O)nn(-c2ccc(Cl)cc2)c1-c1ccc(Cl)cc1 | 87.5 µM | –
19 | > 681 µM | > 681 µM | > 681 µM | > 681 µM | > 681 µM | > 681 µM | > 681 µM | – | – | – | – | – | – | – | – | – | CC(C)(C)NCc1c(C(=O)O)nn(-c2ccccc2)c1-c1ccc(F)cc1 | > 681 µM | –
